Source: PubChem BioAssay AID1963870 (Molecular Pharmacology Branch, DTP, NCI, 2024)

Tested on: 292921-168-R-J2-PDC KRAS tumor spheroid viability
Experiment: Anticancer human tumor 292921-168-R-J2-PDC patient-derived pancreatic carcinoma cell line growth inhibition [KRAS2]
Details: spheroids with HUVEC and MSC; for IC50: curve of first compound; for viability, T/C: stronger effect = lower value
Outline: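 Combination screen of spheroid viability in tumor-cell co-cultures with endothelial (HUVEC) and mesenchymal stem cell stroma. Each agent was tested in half-log dilutions, topping at clinical Cmax or at 10 microM without a known Cmax.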

[1] = second compound 0.1 µM, first compound 0.0316 µM
[2] = second compound 0.1 µM, first compound 0.1 µM
[3] = second compound 0.1 µM, first compound 0.316 µM
[4] = second compound 0.1 µM, first compound 1 µM
[5] = second compound 0.1 µM, first compound 3.16 µM
[6] = second compound 0.1 µM, first compound 10 µM
[7] = second compound 0.316 µM, first compound 0.0316 µM
[8] = second compound 0.316 µM, first compound 0.1 µM
[9] = second compound 0.316 µM, first compound 0.316 µM
[10] = second compound 0.316 µM, first compound 1 µM
[11] = second compound 0.316 µM, first compound 3.16 µM
[12] = second compound 0.316 µM, first compound 10 µM
[13] = second compound 1 µM, first compound 0.0316 µM
[14] = second compound 1 µM, first compound 0.1 µM
[15] = second compound 1 µM, first compound 0.316 µM
[16] = second compound 1 µM, first compound 1 µM
[17] = second compound 1 µM, first compound 3.16 µM
[18] = second compound 1 µM, first compound 10 µM
[19] = second compound 3.16 µM, first compound 0.0316 µM
[20] = second compound 3.16 µM, first compound 0.1 µM
[21] = second compound 3.16 µM, first compound 0.316 µM
[22] = second compound 3.16 µM, first compound 1 µM
[23] = second compound 3.16 µM, first compound 3.16 µM
[24] = second compound 3.16 µM, first compound 10 µM
[25] = second compound 10 µM, first compound 0.0316 µM
[26] = second compound 10 µM, first compound 0.1 µM
[27] = second compound 10 µM, first compound 0.316 µM
[28] = second compound 10 µM, first compound 1 µM
[29] = second compound 10 µM, first compound 3.16 µM
[30] = second compound 10 µM, first compound 10 µM
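Also: drug exposure lasted seven days after spheroids formed for three days.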
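For viability, T/C in this document: percent of DMSO vehicle control viability which is 100%.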

Row | SMILES | IC50 (second compound 0.1 µM) | IC50 (second compound 0.316 µM) | IC50 (second compound 1 µM) | IC50 (second compound 3.16 µM) | IC50 (second compound 10 µM) | viability, T/C [1] | viability, T/C [2] | viability, T/C [3] | viability, T/C [4] | viability, T/C [5] | viability, T/C [6] | viability, T/C [7] | viability, T/C [8] | viability, T/C [9] | viability, T/C [13] | viability, T/C [14] | viability, T/C [19] | viability, T/C [20] | viability, T/C [25] | viability, T/C [26] | further results
1 | CC(C)NCC(C(=O)N1CCN(c2ncnc3c2C(C)CC3O)CC1)c1ccc(Cl)cc1 (stereo not given) + CNCc1ccccc1-c1csc(C(C)Nc2nc(C)nc3cc(OC)c(OC)cc23)c1 | 7140 nM | 5150 nM | 597 nM | < 31.6 nM | < 31.6 nM | 80.5% | 88.9% | 74.1% | 77.3% | 67.8% | 42.5% | 76.9% | 70.6% | 65.1% | 59.9% | 55.4% | 0.1% | 0.09% | 0.09% | 0.08% | viability, T/C [10]: 65.4%; viability, T/C [11]: 62.6%; viability, T/C [12]: 35.6%; viability, T/C [15]: 49.5%; viability, T/C [16]: 46.7%; viability, T/C [17]: 42.2%; viability, T/C [18]: 22.9%; viability, T/C [21]: 0.37%; viability, T/C [22]: 0.1%; viability, T/C [23]: 0.07%; viability, T/C [24]: 0.36%; viability, T/C [27]: 0.25%; viability, T/C [28]: 0.36%; viability, T/C [29]: 0.09%; viability, T/C [30]: 0.3%
2 | CC(C)n1nc(-c2ccc3oc(N)nc3c2)c2c(N)ncnc21 + CNCc1ccccc1-c1csc(C(C)Nc2nc(C)nc3cc(OC)c(OC)cc23)c1 | 3.06 nM | 2.08 nM | 0.991 nM | < 0.316 nM | < 0.316 nM | 25.3% | 23.7% |  |  |  |  | 24.5% | 21.5% |  | 22.7% | 19% | 0.67% | 0.43% | 0.85% | 0.31% | viability, T/C (second compound 0.1 µM, first compound 0.000316 µM): 76.3%; viability, T/C (second compound 0.1 µM, first compound 0.001 µM): 63.9%; viability, T/C (second compound 0.1 µM, first compound 0.00316 µM): 50.2%; viability, T/C (second compound 0.1 µM, first compound 0.01 µM): 36.2%; viability, T/C (second compound 0.316 µM, first compound 0.000316 µM): 79%; viability, T/C (second compound 0.316 µM, first compound 0.001 µM): 60.7%; viability, T/C (second compound 0.316 µM, first compound 0.00316 µM): 43.3%; viability, T/C (second compound 0.316 µM, first compound 0.01 µM): 33.5%; viability, T/C (second compound 1 µM, first compound 0.000316 µM): 74.4%; viability, T/C (second compound 1 µM, first compound 0.001 µM): 50%; viability, T/C (second compound 1 µM, first compound 0.00316 µM): 33.6%; viability, T/C (second compound 1 µM, first compound 0.01 µM): 25.7%; viability, T/C (second compound 3.16 µM, first compound 0.000316 µM): 1.37%; viability, T/C (second compound 3.16 µM, first compound 0.001 µM): 0.62%; viability, T/C (second compound 3.16 µM, first compound 0.00316 µM): 0.91%; viability, T/C (second compound 3.16 µM, first compound 0.01 µM): 0.17%; viability, T/C (second compound 10 µM, first compound 0.000316 µM): 0.08%; viability, T/C (second compound 10 µM, first compound 0.001 µM): 0.56%; viability, T/C (second compound 10 µM, first compound 0.00316 µM): 0.08%; viability, T/C (second compound 10 µM, first compound 0.01 µM): 0.09%
3 | CCNC(=O)CC1N=C(c2ccc(Cl)cc2)c2cc(OC)ccc2-n2c(C)nnc21 (stereo not given) + CC1OCC2(CCN(c3cnc(Sc4ccnc(N)c4Cl)c(N)n3)CC2)C1N | 287 nM | 48.4 nM | < 31.6 nM | < 31.6 nM | < 31.6 nM | 69.1% | 60.6% | 48.1% | 40.1% | 29.4% | 27.5% | 53.5% | 45.5% | 31.4% | 45.6% | 43.7% | 37.4% | 34.6% | 33.8% | 31.1% | viability, T/C [10]: 31.7%; viability, T/C [11]: 25.1%; viability, T/C [12]: 19.7%; viability, T/C [15]: 33.5%; viability, T/C [16]: 31.6%; viability, T/C [17]: 19.9%; viability, T/C [18]: 18.3%; viability, T/C [21]: 26.2%; viability, T/C [22]: 23%; viability, T/C [23]: 20%; viability, T/C [24]: 16.1%; viability, T/C [27]: 28.4%; viability, T/C [28]: 23.1%; viability, T/C [29]: 20.9%; viability, T/C [30]: 17.3%
4 | CC1(C)CCC(CN2CCN(c3ccc(C(=O)NS(=O)(=O)c4ccc(NCC5CCOCC5)c([N+](=O)[O-])c4)c(Oc4cnc5[nH]ccc5c4)c3)CC2)=C(c2ccc(Cl)cc2)C1 + COc1cc2nc(C)nc(NC(C)c3cc(N)cc(C(F)(F)F)c3)c2cc1OC1CCOC1 | 2090 nM | 2180 nM | 1820 nM | 1380 nM | < 31.6 nM | 105% | 94.4% | 91.9% | 93.4% | 25.6% | 14.3% | 88.9% | 81% | 88.9% | 84.1% | 80.5% | 70.8% | 70.6% | 36.8% | 31% | viability, T/C [10]: 91.6%; viability, T/C [11]: 32.1%; viability, T/C [12]: 8.02%; viability, T/C [15]: 83%; viability, T/C [16]: 85.8%; viability, T/C [17]: 19.5%; viability, T/C [18]: 8.25%; viability, T/C [21]: 73.2%; viability, T/C [22]: 63.4%; viability, T/C [23]: 15.6%; viability, T/C [24]: 8.28%; viability, T/C [27]: 33.6%; viability, T/C [28]: 27.3%; viability, T/C [29]: 7.17%; viability, T/C [30]: 6.32%
5 | CCNC(=O)CC1N=C(c2ccc(Cl)cc2)c2cc(OC)ccc2-n2c(C)nnc21 (stereo not given) + C=CC(=O)N1CCN(c2nc(=O)n(-c3c(C)ccnc3C(C)C)c3nc(-c4c(O)cccc4F)c(F)cc23)C(C)C1 | 6090 nM | 6080 nM | 4240 nM | 530 nM | < 31.6 nM | 111% | 104% | 77.2% | 63.1% | 60.7% | 43.4% | 117% | 103% | 81.1% | 109% | 97% | 78.2% | 69.1% | 29.1% | 26.2% | viability, T/C [10]: 68.8%; viability, T/C [11]: 63%; viability, T/C [12]: 41.5%; viability, T/C [15]: 77.6%; viability, T/C [16]: 65.4%; viability, T/C [17]: 54.8%; viability, T/C [18]: 40.7%; viability, T/C [21]: 53.1%; viability, T/C [22]: 43.8%; viability, T/C [23]: 35.6%; viability, T/C [24]: 26.4%; viability, T/C [27]: 23.8%; viability, T/C [28]: 16.8%; viability, T/C [29]: 9.64%; viability, T/C [30]: 6.83%
